Source: patent US20170066759A1, “AROMATIC 5-MEMBERED HETEROCYCLIC DERIVATIVE HAVING TRPV4-INHIBITING ACTIVITY” (Shionogi & Co., Ltd., priority 2012, published 2017)

Target: T1, human TRPV4 (hTRPV4/CHO cells) (Homo sapiens, UniProt Q9HBA0)
T1 construct: expressed in transfected cells; host or cells: CHO-K1
Assay: Test Example 1: TRPV4 inhibitory activity (IC50 value), 4α-PDD stimulation, Fluo4 calcium fluorescence (FLIPR TETRA)
Type: cell-based
Conditions: 1 μmol/L 4α-PDD, Fluo4-AM, read-out: TRPV4 inhibitory activity (IC50 value)

T1 sequence (Q9HBA0 whole entry): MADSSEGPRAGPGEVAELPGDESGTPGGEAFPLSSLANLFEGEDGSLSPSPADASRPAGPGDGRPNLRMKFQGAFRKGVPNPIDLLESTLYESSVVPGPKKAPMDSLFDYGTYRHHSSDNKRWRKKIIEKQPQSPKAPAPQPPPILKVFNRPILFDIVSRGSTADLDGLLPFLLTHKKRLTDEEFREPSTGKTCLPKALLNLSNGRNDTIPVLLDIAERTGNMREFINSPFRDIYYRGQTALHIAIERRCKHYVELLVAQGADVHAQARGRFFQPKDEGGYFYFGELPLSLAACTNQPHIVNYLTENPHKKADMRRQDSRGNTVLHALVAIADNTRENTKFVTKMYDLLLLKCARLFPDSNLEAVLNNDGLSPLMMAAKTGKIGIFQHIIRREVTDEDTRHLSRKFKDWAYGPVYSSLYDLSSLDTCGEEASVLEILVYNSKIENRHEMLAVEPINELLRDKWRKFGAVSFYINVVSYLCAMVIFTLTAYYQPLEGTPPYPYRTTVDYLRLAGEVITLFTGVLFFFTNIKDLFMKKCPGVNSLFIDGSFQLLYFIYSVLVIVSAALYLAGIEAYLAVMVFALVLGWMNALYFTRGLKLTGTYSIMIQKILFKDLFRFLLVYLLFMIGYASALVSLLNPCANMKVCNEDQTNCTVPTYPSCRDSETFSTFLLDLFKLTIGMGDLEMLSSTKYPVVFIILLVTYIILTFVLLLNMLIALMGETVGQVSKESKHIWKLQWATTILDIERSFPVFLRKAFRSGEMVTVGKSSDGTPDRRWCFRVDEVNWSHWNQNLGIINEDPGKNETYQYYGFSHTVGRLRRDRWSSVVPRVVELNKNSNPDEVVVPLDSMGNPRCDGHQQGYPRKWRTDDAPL

IC50 | SMILES
0.022 µM | CC(=O)NCc1nc(CO)sc1-c1csc(NC(=O)Cc2ccc(S(=O)(=O)C(F)(F)F)cc2)n1 [Compound I-382]

Same assay, conditions: Test Example 1, 4α-PDD stimulation, read-out: Test 1 IC50

IC50 | SMILES
1 to 8 µM | Cc1nc(CO)sc1-c1csc(NC(=O)C2CC(OCc3cccnc3)C2)n1 (stereo not drawn) [Compound I-247]
1 to 8 µM | Cc1nc(CO)sc1-c1csc(NC(=O)C2C[C@H](C(F)(F)F)CN2C(=O)C(F)(F)F)n1 (stereo partly drawn) [Compound I-464]
< 0.1 µM | Cc1nc(C)c(-c2csc(NC(=O)[C@@H]3C[C@@H](c4ccccc4)CN3S(=O)(=O)C(C)C)n2)s1 [Compound I-301]
1 to 8 µM | CCCCCCNC(=O)c1sc(NC(=O)Cc2c(F)cccc2F)nc1-c1sc(C)nc1C [Compound I-87]
< 0.1 µM | Cc1nc(C)c(-c2csc(NC(=O)Cc3cccc(C(=O)N[C@@H](c4ccccc4)C(F)(F)F)c3)n2)s1 [Compound I-490]
1 to 8 µM | Cc1nc(C)c(-c2csc(NC(=O)Cc3cc(C(=O)N[C@H](c4ccccc4)C(F)(F)F)cc(-c4nnn[nH]4)c3)n2)s1 [Compound I-520]
1 to 8 µM | NC(=O)c1nc(CO)c(-c2csc(NC(=O)Cc3ccc(S(=O)(=O)C(F)(F)F)cc3)n2)s1 [Compound I-255]
< 0.1 µM | Cc1nc(CO)sc1-c1csc(NC(=O)C2CN(c3ccc(C(F)(F)F)cc3)C2)n1 [Compound I-369]
0.1 to 1 µM | CC(OC(N)=O)c1nc(CO)sc1-c1csc(NC(=O)Cc2ccc(S(=O)(=O)C(F)(F)F)cc2)n1 (racemic) [Compound I-474]
< 0.1 µM | Cc1nc(C)c(-c2csc(NC(=O)[C@@H]3CC[C@H](c4ccccc4)N3C(=O)OC(C)(C)C)n2)s1 [Compound I-212]
1 to 8 µM | Cc1nc(C(O)CO)sc1-c1csc(NC(=O)Cc2c(F)cccc2F)n1 (stereo not drawn) [Compound I-133]
< 0.1 µM | O=C(Nc1nc(-c2sc(CO)nc2CO)cs1)C1CCC(C(F)(F)F)CC1 (stereo not drawn) [Compound I-254]
0.1 to 1 µM | Cc1nc(CO)sc1-c1csc(NC(=O)CN2CCC(c3ccccc3)CC2)n1 [Compound I-171]
0.1 to 1 µM | Cc1nc(C)c(-c2csc(NC(=O)Cc3ccc(S(C)(=O)=O)cc3F)n2)s1 [Compound I-92]
< 0.1 µM | Cc1nc(C)c(-c2csc(NC(=O)Cn3cc(-c4cccc(S(C)(=O)=O)c4)cn3)n2)s1 [Compound I-150]
< 0.1 µM | CN(C)C(=O)NCc1nc(CO)sc1-c1csc(NC(=O)Cc2ccc(S(=O)(=O)C(F)(F)F)cc2)n1 [Compound I-390]
1 to 8 µM | Cc1nc(C(C)O)sc1-c1csc(NC(=O)[C@H]2C[C@H](F)C2)n1 (mixture of isomers) [Compound I-298]
0.1 to 1 µM | Cc1nc(C)c(-c2nc(NC(=O)Cc3c(F)cccc3F)sc2-c2cscn2)s1 [Compound I-61]
1 to 8 µM | CCNC(=O)c1nc(C)sc1-c1csc(NC(=O)Cc2c(F)cccc2F)n1 [Compound I-181]
0.1 to 1 µM | Cc1nc(CO)sc1-c1csc(NC(=O)/C=C/c2ccc(Cl)cc2)n1 [Compound I-466]
0.1 to 1 µM | CCCCOC(CNc1nc(-c2sc(C)nc2C)cs1)c1ccc(Cl)cc1 (racemic) [II-50]
1 to 8 µM | Cc1nc(C)c(-c2nc(NC(=O)Cc3c(F)cccc3F)sc2-c2cccnc2)s1 [Compound I-63]
< 0.1 µM | CC(=O)NCc1nc(CO)sc1-c1csc(NC(=O)Cc2ccc(S(=O)(=O)C(F)(F)F)cc2)n1 [Compound I-382]
< 0.1 µM | Cc1nc(C)c(-c2csc(NC(=O)Cc3cccc(S(=O)(=O)NCC(F)(F)F)c3)n2)s1 [Compound I-502]
< 0.1 µM | Cc1nc(CO)sc1-c1csc(NC(=O)C2C[C@H](C(F)(F)F)CN2C(=O)OC(C)(C)C)n1 (stereo partly drawn) [Compound I-448]
0.1 to 1 µM | CC(=O)c1nc(C)sc1-c1csc(NC(=O)Cc2c(F)cccc2F)n1 [Compound I-129]
1 to 8 µM | Cc1nc(C)c(-c2csc(NC(=O)Cc3ccc(S(=O)(=O)C(F)(F)F)cc3)n2)[nH]1 [Compound I-477]

IC50 | SMILES
0.1 to 1 µM | Cc1nc(C)c(-c2csc(NC(=O)[C@H]3CC[C@@H](C(=O)N[C@H](c4ccccc4)C(F)(F)F)CC3)n2)s1 [Compound I-495]
< 0.1 µM | COC(=O)N1C[C@H](c2ccccc2)C[C@H]1C(=O)Nc1nc(-c2sc(CO)nc2C)cs1 [Compound I-323]
< 0.1 µM | Cc1nc(C)c(-c2csc(NC(=O)C3CN(c4ncc(C(F)(F)F)cn4)C3)n2)s1 [Compound I-278]
1 to 8 µM | Cc1nc(C)c(-c2csc(NC(=O)c3cccc(-c4ccccc4)n3)n2)s1 [Compound I-296]
< 0.1 µM | Cc1nc(CO)c(-c2csc(NC(=O)Cc3ccc(S(=O)(=O)C(F)(F)F)cc3)n2)s1 [Compound I-456]
1 to 8 µM | CC(OC(N)=O)c1nc(CO)sc1-c1csc(NC(=O)Cc2ccc(S(=O)(=O)C(F)(F)F)cc2)n1 (single isomer, unassigned) [Compound I-479]
< 0.1 µM | Cc1nc(C)c(-c2csc(NC(=O)Cc3cccc(C(=O)NC(C(C)(C)C)C(F)(F)F)n3)n2)s1 (stereo not drawn) [Compound I-507]
< 0.1 µM | Cc1nc(CO)sc1-c1csc(NC(=O)C2Oc3cc(Cl)c(Cl)cc3O2)n1 [Compound I-273]
< 0.1 µM | Cc1nc(C)c(-c2csc(NC(=O)C3(COCc4ccccc4)CN(c4ccc(C(F)(F)F)cc4)C3)n2)s1 (racemic) [Compound I-530]
< 0.1 µM | Cc1nc(CO)sc1-c1csc(NC(=O)[C@@H]2C[C@@H](c3ccccc3)CN2C(=O)C(F)(F)F)n1 [Compound I-290]
0.1 to 1 µM | NC(=O)c1nc(CO)c(-c2csc(NC(=O)[C@H]3C[C@@H](OCc4ccc(C(F)(F)F)cc4)C3)n2)s1 [Compound I-551]
< 0.1 µM | Cc1nc(CO)sc1-c1csc(NC(=O)[C@@H]2C[C@@H](c3ccccc3)CN2C(=O)OCC(F)(F)F)n1 [Compound I-314]
0.1 to 1 µM | Cc1[nH]c(=O)sc1-c1csc(NC(=O)Cc2c(F)cccc2F)n1 [Compound I-93]
0.1 to 1 µM | Cc1nc(C)c(-c2csc(NC(=O)CN3CCC(c4ccccc4)CC3)n2)s1 [Compound I-152]
< 0.1 µM | Cc1nc(C)c(-c2csc(NC(=O)Cc3ccc(S(=O)(=O)CC(F)(F)F)cc3)n2)s1 [Compound I-141]
0.1 to 1 µM | Cc1nc(C)c(-c2csc(NC(=O)Cc3cc(OCCO)cc(C(=O)N[C@H](c4ccccc4)C(F)(F)F)c3)n2)s1 [Compound I-515]
0.1 to 1 µM | Cc1nc(C(C)O)oc1-c1csc(NC(=O)Cc2ccc(S(=O)(=O)C(F)(F)F)cc2)n1 (racemic) [Compound I-387]
0.1 to 1 µM | Cc1nc(C)c(-c2csc(NC(=O)C3CN(c4ccc(C(F)(F)F)nn4)C3)n2)s1 [Compound I-284]
0.1 to 1 µM | NS(=O)(=O)NCc1nc(CO)sc1-c1csc(NC(=O)Cc2ccc(S(=O)(=O)C(F)(F)F)cc2)n1 [Compound I-384]
< 0.1 µM | Cc1nc(C)c(-c2csc(NC(=O)Cc3cccc(C(=O)Nc4ccccc4F)n3)n2)s1 [Compound I-505]
< 0.1 µM | Cc1nc(CO)sc1-c1csc(NC(=O)C2Oc3ccc(Cl)cc3O2)n1 (racemic) [Compound I-238]
0.1 to 1 µM | COCc1nc(C)c(-c2csc(NC(=O)Cc3ccc(S(=O)(=O)C(F)(F)F)cc3)n2)s1 [Compound I-459]
< 0.1 µM | Cc1nc(C)c(-c2csc(NC(=O)Cn3cc(-c4ccccc4Cl)cn3)n2)s1 [Compound I-145]
< 0.1 µM | Cc1nc(C)c(-c2csc(NC(=O)C3Cc4ccc(Cl)c(Cl)c4O3)n2)s1 (stereo not drawn) [Compound I-195]
< 0.1 µM | O=C(Cc1ccc(S(=O)(=O)C(F)(F)F)cc1)Nc1nc(-c2sc(CO)nc2CCO)cs1 [Compound I-366]
1 to 8 µM | Cc1nc(C(=O)NS(C)(=O)=O)sc1-c1csc(NC(=O)Cc2c(F)cccc2F)n1 [Compound I-115]
